Several values for one entry are separate records, joined by “and”; a condition that tells them apart may be missing. Equal entries are not always repeated. Structures can show the parent of a compound that is named as a salt.
Test: Effect of degasification of the air in a vial and/or replacement by nitrogen (storage of powdery charged preparations)
Type: physicochemical
Conditions: for HPLC impurity, mean / content of residual carbapenem compound, mean: N=3
Description: As the monohydrate crystals, the powdery charged preparation of the novel carbapenem hydrochloride crystals (25 mg/vial) obtained in the method in Example 2-3 (replacement by nitrogen), the powdery charged preparation (25 mg/vial) subjected to replacement by oxygen in place of replacement by nitrogen in Example 2-3, and the powdery charged preparation (25 mg/vial) not subjected to replacement in Example 2-2 were stored at 60° C. for 5 days (N=3) and then measured for their color difference (ΔE), water content, powdery x-ray diffraction pattern, content of residual carbapenem and HPLC impurities. As the trihydrate crystals, the powdery charged preparation of the novel carbapenem hydrochloride crystals (25 mg/vial) obtained by the method (replacement by nitrogen) in Example 1-9 and the powdery charged preparation (25 mg/vial) not subjected to replacement in Example 1-8 were stored at 40° C. for 1 month and then measured for their color difference (ΔE), water content and content of residual carbapenem. The color difference was evaluated by a color difference meter (ZE-200, Nippondenso Co., Ltd.); the water content by a Karl-Fisher moisture meter (CA-05, Mitsubishi Kagaku Kogyo); the powdery X-ray diffraction under the method and conditions in Example 1-1 or 2-1; and the content of residual carbapenem and HPLC impurities by high performance liquid chromatography (Shimadzu Corporation). The color difference (ΔE) is a parameter indicative of a change in the color of the outward appearance of crystals, and its higher value indicates a greater coloration change than at an initial stage (just after production).

[1] = 25 mg/vial, control (air), no replacement, stored 60° C. for 5 days
[2] = 25 mg/vial, control (air), no replacement, stored 60° C. for 5 days, monohydrochloride monohydrate
[3] = 25 mg/vial, gas for replacement nitrogen, stored 60° C. for 5 days
[4] = 25 mg/vial, gas for replacement nitrogen, stored 60° C. for 5 days, monohydrochloride monohydrate
[5] = 25 mg/vial, gas for replacement oxygen, stored 60° C. for 5 days
[6] = 25 mg/vial, gas for replacement oxygen, stored 60° C. for 5 days, monohydrochloride monohydrate
[7] = monohydrate powdery charged preparation, initial stage

- powdery X-ray diffraction pattern [1]: no change
- HPLC impurity, mean [1]: 0.63%
- content of residual carbapenem compound, mean [1]: 98.40%
- HPLC impurity [2]: 0.62% and 0.64%
- color difference (ΔE) [2]: 10.48 and 11.21 and 10.41
- content of residual carbapenem compound [2]: 98.6% and 98.1%
- water content [2]: 5.87% and 5.93%
- powdery X-ray diffraction pattern [3]: no change
- HPLC impurity, mean [3]: 0.63%
- content of residual carbapenem compound, mean [3]: 98.40%
- HPLC impurity [4]: 0.63% and 0.64%
- color difference (ΔE) [4]: 4.23 and 4.57 and 5.23
- water content [4]: 5.80% and 5.78% and 5.77%
- powdery X-ray diffraction pattern [5]: no change
- HPLC impurity, mean [5]: 0.64%
- content of residual carbapenem compound, mean [5]: 97.80%
- HPLC impurity [6]: 0.63% and 0.64%
- color difference (ΔE) [6]: 12.7 and 12.14 and 11.46
- content of residual carbapenem compound [6]: 97.5% and 98.1% and 97.8%
- water content [6]: 5.78% and 5.77% and 5.75%
- HPLC impurity [7]: 1.03%
- water content [7]: 5.99%
SMILES: C[C@@H](O)[C@H]1C(=O)N2C(C(=O)O)=C(S[C@@H]3CN[C@H]([C@H](O)[C@@H]4CCNC4)C3)[C@H](C)[C@H]12 [monohydrate, (+)-(1R,5S,6S)-6-[(R)-1-Hydroxyethyl]-1-methyl-2-[(2S,4S)-2-[(3R)-pyrrolidine-3-yl-(R)-hydroxymethyl]pyrrolidine-4-yl]thio-1-carbapen-2-em-3-carboxylic acid monohydrochloride monohydrate]

— patent US7084268B1, “Carbapenem compound crystals and interjection preparations” (Eisai Co., Ltd., priority 1999, dated 2006)
